Results reported in patent US10144742B2 (Millennium Pharmaceuticals, Inc., priority 2014, dated 2018).
Where two headings read alike, the source gives them in different places.

Experiments:
[1] = target: hNAMPT protein (Homo sapiens (Human), UniProt P43490); test: NAMPT enzyme assay (TR-FRET/HTRF, BodiPY ligand, anti 6His-Tb); type: binding; conditions: for IC50: NAMPT IC50 range class, read-out: IC50; for inhibition at 1 µM: read-out: Percent Inhibition
Procedure, shortened: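 Compound or DMSO was incubated for 1 h at room temperature, protected from light, with BodiPY ligand and hNAMPT labelled by terbium anti-6His antibody. The 520 nm to 486 nm emission ratio after 320 nm excitation gave inhibition versus vehicle, from which concentration-response curves yielded IC50.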

[2] = tested on: PC3 cells; test: PC3 growth inhibition (Cell-titer glo, 72 hours); type: cell-based; conditions: Homo sapiens, PC-3, PC3 cells, 72 hours, Cell-titer glo, read-out: Percent Inhibition (PC3 growth inhibition); for inhibition at 1 µM: compound concentration 1 μM; for inhibition at 1.667 µM: compound concentration 1.667 μM
Procedure, shortened: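 Compounds in AIM serum-free medium were applied for 72 h at 37 °C, 5% CO2 to PC3 cells plated overnight from RPMI1640 culture. Luminescence after 10 min CellTiter-Glo, normalised to DMSO, gave % viability at 1 μM or 1.667 μM, or GI50/LD50.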

hNAMPT protein, sequence (P43490 whole entry): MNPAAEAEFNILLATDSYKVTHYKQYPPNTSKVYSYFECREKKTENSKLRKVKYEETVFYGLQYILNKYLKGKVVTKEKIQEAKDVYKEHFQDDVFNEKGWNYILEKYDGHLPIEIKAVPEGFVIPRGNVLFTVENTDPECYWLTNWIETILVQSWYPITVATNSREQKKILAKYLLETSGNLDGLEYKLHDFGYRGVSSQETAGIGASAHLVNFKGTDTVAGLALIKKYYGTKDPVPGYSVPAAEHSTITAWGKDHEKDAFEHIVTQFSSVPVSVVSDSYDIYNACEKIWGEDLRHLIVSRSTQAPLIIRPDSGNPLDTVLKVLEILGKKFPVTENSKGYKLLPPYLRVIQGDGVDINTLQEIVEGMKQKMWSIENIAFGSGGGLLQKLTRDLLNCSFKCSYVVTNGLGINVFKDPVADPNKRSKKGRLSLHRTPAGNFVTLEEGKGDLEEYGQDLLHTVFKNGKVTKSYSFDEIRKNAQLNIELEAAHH

For `CC(C)(C)OC(=O)NCc1cccc(-c2nc3ccc(C(=O)NCCCn4ccnc4)cc3nc2-c2ccccc2)c1` [Compound I-152, tert-butyl[3-(6-{[3-(1H-imidazol-1-yl)propyl]carbamoyl}-3-phenylquinoxalin-2-yl)benzyl]carbamate], the IC50 [1] was 500 to 1000 nM, the inhibition at 1 µM ([1]; compound concentration 1 μM) was 62% and the inhibition at 1 µM [2] was 3%.

`O=C(NCCCn1ccnc1)c1ccc2nc(-c3ccccc3)c(N3CCC(O)C3)nc2c1` (stereo not drawn) [Compound I-153, 3-(3-hydroxypyrrolidin-1-yl)-N-[3-(1H-imidazol-1-yl)propyl]-2-phenylquinoxaline-6-carboxamide] gave an IC50 [1] of 2000 to 10000 nM, an inhibition at 1 µM ([1]; compound concentration 1 μM) of 22% and an inhibition at 1 µM [2] of 14%.

With `O=C(NCCCc1ncc[nH]1)c1ccc2nc(N3CC4(COC4)C3)c(-c3ccc(F)cc3)nc2c1` [Compound I-154, 3-(4-fluorophenyl)-N-[3-(1H-imidazol-2-yl)propyl]-2-(2-oxa-6-azaspiro[3.3]hept-6-yl)quinoxaline-6-carboxamide] the IC50 [1] was < 100 nM, the inhibition at 1 µM ([1]; compound concentration 1 μM) was 98% and the inhibition at 1.667 µM [2] was 2%.

Compound `O=C(c1ccc2nc(-c3ccc(F)cc3)c(-c3ccc(F)cc3)nc2c1)N1CCOC(c2cccnc2)C1` (stereo not drawn) [Compound I-155, [2,3-bis(4-fluorophenyl)quinoxalin-6-yl][2-(pyridin-3-yl)morpholin-4-yl]methanone] has an IC50 [1] of 2000 to 10000 nM, an inhibition at 1 µM ([1]; compound concentration 1 μM) of 12% and an inhibition at 1 µM [2] of 103%.

With `O=C(NCc1ccc2nccn2c1)c1ccc2nc(N3CCC(O)CC3)c(-c3ccc(F)cc3)nc2c1` [Compound I-156, 3-(4-Fluorophenyl)-2-(4-hydroxypiperidin-1-yl)-N-(imidazo[1,2-a]pyridin-6-ylmethyl)quinoxaline-6-carboxamide] the IC50 [1] was < 100 nM, the inhibition at 1 µM ([1]; compound concentration 1 μM) was 97% and the inhibition at 1.667 µM [2] was 2%.

With `N#Cc1cccc(-c2nc3cc(C(=O)NCCCn4ccnc4)ccc3nc2-c2ccccc2)c1` [Compound I-157, 3-(3-cyanophenyl)-N-[3-(1H-imidazol-1-yl)propyl]-2-phenylquinoxaline-6-carboxamide] the IC50 [1] was 1000 to 2000 nM, the inhibition at 1 µM ([1]; compound concentration 1 μM) was 40% and the inhibition at 1 µM [2] was 2%.

`Cc1nc2ccc(C(=O)NCCCn3ccnc3)cc2nc1-c1ccccc1` [Compound I-158, N-[3-(1H-imidazol-1-yl)propyl]-2-methyl-3-phenylquinoxaline-6-carboxamide] gave an IC50 [1] of 1000 to 2000 nM, an inhibition at 1 µM ([1]; compound concentration 1 μM) of 42% and an inhibition at 1 µM [2] of 0%.

For `O=C(NCCCn1ccnc1)c1ccc2nc(N3CC4CC4C3)c(-c3ccccc3)nc2c1` (stereo not drawn) [Compound I-159, 2-(3-azabicyclo[3.1.0]hex-3-yl)-N-[3-(1H-imidazol-1-yl)propyl]-3-phenylquinoxaline-6-carboxamide], the IC50 [1] was 100 to 500 nM, the inhibition at 1 µM ([1]; compound concentration 1 μM) was 71% and the inhibition at 1 µM [2] was -6%.

In the case of `O=C(NCCCn1ccnc1)c1ccc2nc(N3CCCCC3)c(-c3ccccc3)nc2c1` [Compound I-161, N-[3-(1H-imidazol-1-yl)propyl]-3-phenyl-2-(piperidin-1-yl)quinoxaline-6-carboxamide], the IC50 [1] is reported as < 100 nM, the inhibition at 1 µM ([1]; compound concentration 1 μM) is reported as 89% and the inhibition at 1 µM [2] is reported as -7%.

With `O=C(NCCCn1ccnc1)c1ccc2nc(-c3ccccc3)c(C3=CCOCC3)nc2c1` [Compound I-162, 3-(3,6-dihydro-2H-pyran-4-yl)-N-[3-(1H-imidazol-1-yl)propyl]-2-phenylquinoxaline-6-carboxamide] the IC50 [1] was 1000 to 2000 nM, the inhibition at 1 µM ([1]; compound concentration 1 μM) was 44% and the inhibition at 1 µM [2] was 1%.

Work on `O=C(c1ccc2nc(-c3ccc(F)cc3)c(-c3ccc(F)cc3)nc2c1)N1CCC(c2ccccn2)C1` (stereo not drawn) [Compound I-163, [2,3-bis(4-fluorophenyl)quinoxalin-6-yl][3-(pyridin-2-yl)pyrrolidin-1-yl]methanone] yielded an IC50 [1] of 2000 to 10000 nM, an inhibition at 1 µM ([1]; compound concentration 1 μM) of 17% and an inhibition at 1 µM [2] of 86%.

`O=C(NCCc1nccs1)c1ccc2nc(-c3ccc(F)cc3)c(-c3ccc(F)cc3)nc2c1` [Compound I-164, 2,3-Bis(4-fluorophenyl)-N-[2-(1,3-thiazol-2-yl)ethyl]quinoxaline-6-carboxamide] was tested, and the IC50 [1] was 100 to 500 nM, the inhibition at 1 µM [1] was 83% and the inhibition at 1 µM [2] was 101%.

Work on `CN1CC=C(c2nc3ccc(C(=O)NCCCn4ccnc4)cc3nc2-c2ccccc2)CC1` [Compound I-165, N-[3-(1H-imidazol-1-yl)propyl]-2-(1-methyl-1,2,3,6-tetrahydropyridin-4-yl)-3-phenylquinoxaline-6-carboxamide] yielded an IC50 [1] of 100 to 500 nM, an inhibition at 1 µM ([1]; compound concentration 1 μM) of 78% and an inhibition at 1 µM [2] of -7%.

For `O=C(NCCCn1ccnc1)c1ccc2nc(-c3ccccc3)c(N3CCCCC3)nc2c1` [Compound I-166, N-[3-(1H-imidazol-1-yl)propyl]-2-phenyl-3-(piperidin-1-yl)quinoxaline-6-carboxamide], the IC50 [1] was 2000 to 10000 nM, the inhibition at 1 µM ([1]; compound concentration 1 μM) was 31% and the inhibition at 1 µM [2] was 5%.

`Cn1cc(-c2nc3cc(C(=O)NCCCn4ccnc4)ccc3nc2-c2ccccc2)cn1` [Compound I-167, N-[3-(1H-imidazol-1-yl)propyl]-3-(1-methyl-1H-pyrazol-4-yl)-2-phenylquinoxaline-6-carboxamide] showed an IC50 [1] of 2000 to 10000 nM, an inhibition at 1 µM ([1]; compound concentration 1 μM) of 24% and an inhibition at 1 µM [2] of 1%.

Work on `CC(=O)N1CCN(c2nc3cc(C(=O)NCCCn4ccnc4)ccc3nc2-c2ccccc2)CC1` [Compound I-168, 3-(4-Acetylpiperazin-1-yl)-N-[3-(1H-imidazol-1-yl)propyl]-2-phenylquinoxaline-6-carboxamide] yielded an IC50 [1] of 100 to 500 nM, an inhibition at 1 µM ([1]; compound concentration 1 μM) of 84% and an inhibition at 1 µM [2] of 1%.

Compound `O=C(NCCc1ccccn1)c1ccc2nc(-c3ccc(F)cc3)c(-c3ccc(F)cc3)nc2c1` [Compound I-169, 2,3-bis(4-fluorophenyl)-N-[2-(pyridin-2-yl)ethyl]quinoxaline-6-carboxamide] has an IC50 [1] of 1000 to 2000 nM, an inhibition at 1 µM ([1]; compound concentration 1 μM) of 36% and an inhibition at 1 µM [2] of 93%.

`O=C(NCc1ccc2nccn2c1)c1ccc2nc(N3CCCCC3)c(-c3ccc(F)cc3)nc2c1` [Compound I-170] was tested, and the IC50 [1] was < 100 nM, the inhibition at 1 µM ([1]; compound concentration 1 μM) was 98% and the inhibition at 1.667 µM [2] was 2%.

With `CCOC(=O)CCc1ccc(-c2nc3cc(C(=O)NCCCn4ccnc4)ccc3nc2-c2ccccc2)cc1` [Compound I-171, ethyl 3-[4-(7-{[3-(1H-imidazol-1-yl)propyl]carbamoyl}-3-phenylquinoxalin-2-yl)phenyl]propanoate] the IC50 [1] was 2000 to 10000 nM, the inhibition at 1 µM ([1]; compound concentration 1 μM) was 27% and the inhibition at 1 µM [2] was 95%.

For `COC1CN(c2nc3ccc(C(=O)NCCCc4ncc[nH]4)cc3nc2-c2ccc(F)cc2)C1` [Compound I-172, 3-(4-fluorophenyl)-N-[3-(1H-imidazol-2-yl)propyl]-2-(3-methoxyazetidin-1-yl)quinoxaline-6-carboxamide], the IC50 [1] was < 100 nM, the inhibition at 1 µM ([1]; compound concentration 1 μM) was > 99% and the inhibition at 1.667 µM [2] was 2%.

In the case of `O=C(NCCn1ccnc1)c1ccc2nc(N3CCC(C4CCNCC4)CC3)c(-c3ccccc3)nc2c1` [Compound I-173, 2-(4,4′-bipiperidin-1-yl)-N-[2-(1H-imidazol-1-yl)ethyl]-3-phenylquinoxaline-6-carboxamide], the IC50 [1] is reported as 100 to 500 nM, the inhibition at 1 µM ([1]; compound concentration 1 μM) is reported as 83% and the inhibition at 1 µM [2] is reported as -1%.

In the case of `O=C(NCCCn1ccnc1)c1ccc2nc(-c3ccccc3)c(-c3ccsc3)nc2c1` [Compound I-174, N-[3-(1H-imidazol-1-yl)propyl]-2-phenyl-3-(3-thienyl)quinoxaline-6-carboxamide], the IC50 [1] is reported as 100 to 500 nM, the inhibition at 1 µM ([1]; compound concentration 1 μM) is reported as 89% and the inhibition at 1 µM [2] is reported as 1%.

`O=C(NCCCn1ccnc1)c1ccc2nc(-c3ccccc3)c(N3CCC3)nc2c1` [Compound I-175, 3-(azetidin-1-yl)-N-[3-(1H-imidazol-1-yl)propyl]-2-phenylquinoxaline-6-carboxamide] gave an IC50 [1] of 2000 to 10000 nM, an inhibition at 1 µM ([1]; compound concentration 1 μM) of 20% and an inhibition at 1 µM [2] of 95%.

`O=C(NCCCn1ccnc1)c1ccc2nc(-c3ccccc3)c(-c3cccnc3)nc2c1` [Compound I-176, N-[3-(1H-imidazol-1-yl)propyl]-2-phenyl-3-(pyridin-3-yl)quinoxaline-6-carboxamide] gave an IC50 [1] of 1000 to 2000 nM, an inhibition at 1 µM ([1]; compound concentration 1 μM) of 46% and an inhibition at 1 µM [2] of 1%.

`Cn1cncc1CCNC(=O)c1ccc2nc(N3CCOCC3)c(-c3ccc(F)cc3)nc2c1` [Compound I-177, 3-(4-fluorophenyl)-N-[2-(1-methyl-1H-imidazol-5-yl)ethyl]-2-(morpholin-4-yl)quinoxaline-6-carboxamide] showed an IC50 [1] of 100 to 500 nM, an inhibition at 1 µM ([1]; compound concentration 1 μM) of 77% and an inhibition at 1.667 µM [2] of 2%.

`O=C(NCCCc1ncc[nH]1)c1ccc2nc(-c3ccc(F)cc3)c(-c3ccc(F)cc3)nc2c1` [Compound I-178, 2,3-bis(4-fluorophenyl)-N-[3-(1H-imidazol-2-yl)propyl]quinoxaline-6-carboxamide] was tested, and the IC50 [1] was < 100 nM, the inhibition at 1 µM ([1]; compound concentration 1 μM) was 97% and the inhibition at 1.667 µM [2] was 2%.

With `Cn1cccc1-c1nc2ccc(C(=O)NCCCn3ccnc3)cc2nc1-c1ccccc1` [Compound I-179, N-[3-(1H-imidazol-1-yl)propyl]-2-(1-methyl-1H-pyrrol-2-yl)-3-phenylquinoxaline-6-carboxamide] the IC50 [1] was 500 to 1000 nM, the inhibition at 1 µM ([1]; compound concentration 1 μM) was 57% and the inhibition at 1 µM [2] was -7%.

For `O=C(NCCCc1ccccn1)c1ccc2nc(-c3ccc(F)cc3)c(-c3ccc(F)cc3)nc2c1` [Compound I-180, 2,3-Bis(4-fluorophenyl)-N-[3-(pyridin-2-yl)propyl]quinoxaline-6-carboxamide], the IC50 [1] was 2000 to 10000 nM, the inhibition at 1 µM [1] was 27% and the inhibition at 1 µM [2] was 102%.

For `COc1cccc(-c2nc3ccc(C(=O)NCCc4cccnc4)cc3nc2-c2cccc(OC)c2)c1` [Compound I-181, 2,3-bis(3-methoxyphenyl)-N-[2-(pyridin-3-yl)ethyl]quinoxaline-6-carboxamide], the IC50 [1] was < 100 nM, the inhibition at 1 µM ([1]; compound concentration 1 μM) was 100% and the inhibition at 1 µM [2] was 0%.
